# Test system: Mitochondria-located protein genes
# Assay: DNA chip mRNA expression in yeast, mitochondria-located protein genes (Table 2)
# Assay type: cell-based, Saccharomyces cerevisiae S288C
# Details: cells incubated two hours with the chemical substance
# How it was run: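 In this screen, yeast in logarithmic growth are challenged for two hours with a toxic substance at a non-lethal inhibitory concentration. Their mRNA, converted to Cy3- or Cy5-labeled cDNA, hybridizes at 65° C. to a chip spanning every yeast gene, and expression is expressed as a ratio to untreated cells.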
compound,measurement,setting,value
"C=CC=O [(14), acrolein]",The level of expressed mRNA in the presence of chemical substance/The level of expressed mRNA in the absence of chemical substance,yeast gene YJR121W,0.7
same,The level of expressed mRNA in the presence of chemical substance/The level of expressed mRNA in the absence of chemical substance,yeast gene YKL003C,2.0
same,The level of expressed mRNA in the presence of chemical substance/The level of expressed mRNA in the absence of chemical substance,yeast gene YKL016C,1.6
same,The level of expressed mRNA in the presence of chemical substance/The level of expressed mRNA in the absence of chemical substance,yeast gene YKL141W,1.4
same,The level of expressed mRNA in the presence of chemical substance/The level of expressed mRNA in the absence of chemical substance,yeast gene YKL142W,2.3
same,The level of expressed mRNA in the presence of chemical substance/The level of expressed mRNA in the absence of chemical substance,yeast gene YKL148C,0.8
same,The level of expressed mRNA in the presence of chemical substance/The level of expressed mRNA in the absence of chemical substance,yeast gene YKL170W,1.3
same,The level of expressed mRNA in the presence of chemical substance/The level of expressed mRNA in the absence of chemical substance,yeast gene YKL194C,1.4
same,The level of expressed mRNA in the presence of chemical substance/The level of expressed mRNA in the absence of chemical substance,yeast gene YKR066C,1.5
same,The level of expressed mRNA in the presence of chemical substance/The level of expressed mRNA in the absence of chemical substance,yeast gene YLL041C,1.2
same,The level of expressed mRNA in the presence of chemical substance/The level of expressed mRNA in the absence of chemical substance,yeast gene YLR038C,1.6
same,The level of expressed mRNA in the presence of chemical substance/The level of expressed mRNA in the absence of chemical substance,yeast gene YLR259C,0.8
same,The level of expressed mRNA in the presence of chemical substance/The level of expressed mRNA in the absence of chemical substance,yeast gene YLR295C,1.2
same,The level of expressed mRNA in the presence of chemical substance/The level of expressed mRNA in the absence of chemical substance,yeast gene YLR304C,0.7
same,The level of expressed mRNA in the presence of chemical substance/The level of expressed mRNA in the absence of chemical substance,yeast gene YLR348C,1.0
same,The level of expressed mRNA in the presence of chemical substance/The level of expressed mRNA in the absence of chemical substance,yeast gene YLR395C,1.7
same,The level of expressed mRNA in the presence of chemical substance/The level of expressed mRNA in the absence of chemical substance,yeast gene YML054C,2.1
same,The level of expressed mRNA in the presence of chemical substance/The level of expressed mRNA in the absence of chemical substance,yeast gene YML120C,0.8
same,The level of expressed mRNA in the presence of chemical substance/The level of expressed mRNA in the absence of chemical substance,yeast gene YML129C,1.4
same,The level of expressed mRNA in the presence of chemical substance/The level of expressed mRNA in the absence of chemical substance,yeast gene YMR023C,1.6
same,The level of expressed mRNA in the presence of chemical substance/The level of expressed mRNA in the absence of chemical substance,yeast gene YMR035W,1.3
same,The level of expressed mRNA in the presence of chemical substance/The level of expressed mRNA in the absence of chemical substance,yeast gene YMR083W,0.8
same,The level of expressed mRNA in the presence of chemical substance/The level of expressed mRNA in the absence of chemical substance,yeast gene YMR089C,0.9
same,The level of expressed mRNA in the presence of chemical substance/The level of expressed mRNA in the absence of chemical substance,yeast gene YMR152W,1.1
same,The level of expressed mRNA in the presence of chemical substance/The level of expressed mRNA in the absence of chemical substance,yeast gene YMR203W,0.7
same,The level of expressed mRNA in the presence of chemical substance/The level of expressed mRNA in the absence of chemical substance,yeast gene YMR267W,1.0
same,The level of expressed mRNA in the presence of chemical substance/The level of expressed mRNA in the absence of chemical substance,yeast gene YNL055C,0.9
same,The level of expressed mRNA in the presence of chemical substance/The level of expressed mRNA in the absence of chemical substance,yeast gene YNL071W,0.8
same,The level of expressed mRNA in the presence of chemical substance/The level of expressed mRNA in the absence of chemical substance,yeast gene YNL073W,0.7
same,The level of expressed mRNA in the presence of chemical substance/The level of expressed mRNA in the absence of chemical substance,yeast gene YNL104C,0.9
same,The level of expressed mRNA in the presence of chemical substance/The level of expressed mRNA in the absence of chemical substance,yeast gene YNL256W,0.7
same,The level of expressed mRNA in the presence of chemical substance/The level of expressed mRNA in the absence of chemical substance,yeast gene YOL096C,1.4
same,The level of expressed mRNA in the presence of chemical substance/The level of expressed mRNA in the absence of chemical substance,yeast gene YOR020C,1.6
same,The level of expressed mRNA in the presence of chemical substance/The level of expressed mRNA in the absence of chemical substance,yeast gene YOR037W,1.0
same,The level of expressed mRNA in the presence of chemical substance/The level of expressed mRNA in the absence of chemical substance,yeast gene YOR100C,1.4
same,The level of expressed mRNA in the presence of chemical substance/The level of expressed mRNA in the absence of chemical substance,yeast gene YOR130C,1.3
same,The level of expressed mRNA in the presence of chemical substance/The level of expressed mRNA in the absence of chemical substance,yeast gene YOR142W,0.8
same,The level of expressed mRNA in the presence of chemical substance/The level of expressed mRNA in the absence of chemical substance,yeast gene YOR150W,1.6
same,The level of expressed mRNA in the presence of chemical substance/The level of expressed mRNA in the absence of chemical substance,yeast gene YOR176W,0.8
same,The level of expressed mRNA in the presence of chemical substance/The level of expressed mRNA in the absence of chemical substance,yeast gene YOR187W,0.6
same,The level of expressed mRNA in the presence of chemical substance/The level of expressed mRNA in the absence of chemical substance,yeast gene YOR316C,1.0
same,The level of expressed mRNA in the presence of chemical substance/The level of expressed mRNA in the absence of chemical substance,yeast gene YPL040C,1.1
same,The level of expressed mRNA in the presence of chemical substance/The level of expressed mRNA in the absence of chemical substance,yeast gene YPL134C,1.4
same,The level of expressed mRNA in the presence of chemical substance/The level of expressed mRNA in the absence of chemical substance,yeast gene YPL135W,1.1
same,The level of expressed mRNA in the presence of chemical substance/The level of expressed mRNA in the absence of chemical substance,yeast gene YPL215W,1.2
same,The level of expressed mRNA in the presence of chemical substance/The level of expressed mRNA in the absence of chemical substance,yeast gene YPL262W,1.2
same,The level of expressed mRNA in the presence of chemical substance/The level of expressed mRNA in the absence of chemical substance,yeast gene YPR024W,0.7
same,The level of expressed mRNA in the presence of chemical substance/The level of expressed mRNA in the absence of chemical substance,yeast gene YPR037C,1.6
same,The level of expressed mRNA in the presence of chemical substance/The level of expressed mRNA in the absence of chemical substance,yeast gene YPR047W,1.0
same,The level of expressed mRNA in the presence of chemical substance/The level of expressed mRNA in the absence of chemical substance,yeast gene YPR134W,1.5
